Data from patent US6783949B1, “Processes for determining whether a test substance contains lipases or lipase inhibitors” (Aventis Pharma Deutschland GmbH, priority 1999, dated 2004).

Assays:
Assay type in all cases: biochemical
[1] = molecular target: T1, HSL (Rattus norvegicus, UniProt P15304); assay: Tributyrin assay; conditions: Example 6, Table 6; n=5, mean±SD
T1 construct: The partially purified HSL can be stored at −70° C. for 4 to 6 weeks; from tissue; host or cells: rat epididymal fat cells (male Wistar rats)
T1 sequence (P15304 1-768 isoform P15304-2): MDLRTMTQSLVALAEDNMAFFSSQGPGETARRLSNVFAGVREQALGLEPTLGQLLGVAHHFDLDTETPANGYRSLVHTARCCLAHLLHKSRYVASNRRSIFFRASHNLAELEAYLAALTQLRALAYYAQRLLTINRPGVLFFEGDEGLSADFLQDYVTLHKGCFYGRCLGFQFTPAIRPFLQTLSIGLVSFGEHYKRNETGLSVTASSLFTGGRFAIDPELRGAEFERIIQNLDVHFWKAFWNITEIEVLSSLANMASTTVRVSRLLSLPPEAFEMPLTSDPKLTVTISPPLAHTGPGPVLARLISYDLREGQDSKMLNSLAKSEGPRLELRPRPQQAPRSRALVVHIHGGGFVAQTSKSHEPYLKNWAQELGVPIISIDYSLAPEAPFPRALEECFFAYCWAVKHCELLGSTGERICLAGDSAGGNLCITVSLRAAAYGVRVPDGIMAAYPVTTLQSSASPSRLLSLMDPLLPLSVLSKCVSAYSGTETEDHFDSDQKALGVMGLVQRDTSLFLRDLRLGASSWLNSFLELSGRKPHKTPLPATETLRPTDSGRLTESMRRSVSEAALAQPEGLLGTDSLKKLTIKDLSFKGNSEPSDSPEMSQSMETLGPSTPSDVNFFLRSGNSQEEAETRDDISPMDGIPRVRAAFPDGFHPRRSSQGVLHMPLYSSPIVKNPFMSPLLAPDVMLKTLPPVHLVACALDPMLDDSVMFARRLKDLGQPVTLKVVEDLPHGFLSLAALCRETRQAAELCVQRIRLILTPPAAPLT
Method: Isolated rat fat cells are obtained from epididymal fatty tissue from untreated male rats (Wistar, 220-250 g) by collagenase treatment according to published processes. The fat cells from 10 rats are washed three times by flotation with 50 ml each of homogenization buffer ([…], pH 7.4, 0.25 M sucrose, 1 mM ethylenediamine-N,N,N′,N′-tetraacetic acid (EDTA), 1 mM dithiothreitol (DTT), 10 μg/ml of leupeptin, 10 μg/ml of antipain, 20 μg/ml of pepstatin) and finally taken up in 10 ml of homogenization buffer. The fat cells are homogenized in a Teflon-in-glass homogenizer (Braun-Melsungen) by 10 strokes at 1500 rpm and 15° C. The homogenizate is centrifuged (Sorvall SM24 tubes, 5000 rpm, 10 min, 4° C.). […]
For the preparation of the substrate, 5 μCi of [1-^14C]tributyrin (in toluene) are added to 1 ml of 20 mM unlabeled tributyrin (in acetonitrile). […] An equivalent volume (1 ml) of the upper phase is taken and the radioactivity is determined by liquid scintillation measurement.
Substances are customarily tested in four independent batches. The inhibition of the enzymatic activity of the HSL by a test substance is determined by comparison with an uninhibited control reaction. The IC50 value is calculated by means of an inhibition curve using at least 10 concentrations of the test substance. […]

[2] = molecular target: T2, pancreatic lipase (Homo sapiens, UniProt P16233); assay: Cleavage of NAG by pancreatic lipase; conditions: for Increase in the absorption at 481 nm: Pancreatic lipase, 60 min, NAG 0.05 mg/ml
T2 sequence (P16233 17-465): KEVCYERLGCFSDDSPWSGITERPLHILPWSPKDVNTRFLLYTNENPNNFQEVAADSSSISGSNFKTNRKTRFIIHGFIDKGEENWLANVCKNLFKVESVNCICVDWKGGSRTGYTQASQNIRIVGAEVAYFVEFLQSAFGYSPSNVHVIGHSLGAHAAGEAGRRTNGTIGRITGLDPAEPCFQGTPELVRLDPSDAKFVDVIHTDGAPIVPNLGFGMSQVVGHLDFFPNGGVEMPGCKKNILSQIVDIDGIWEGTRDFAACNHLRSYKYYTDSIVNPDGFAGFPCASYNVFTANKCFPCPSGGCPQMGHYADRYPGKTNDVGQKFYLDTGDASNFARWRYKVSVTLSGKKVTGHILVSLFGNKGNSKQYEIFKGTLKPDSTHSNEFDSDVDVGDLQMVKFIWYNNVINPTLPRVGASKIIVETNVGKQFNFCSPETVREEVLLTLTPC

[3] = molecular target: T3, lipases, preferably HSL (Rattus norvegicus, UniProt P15304); assay: Synthesized NBD-acylglycerides as substrates of lipases
T3 sequence (P15304 1-768 isoform P15304-2): T1 sequence (P15304 1-768 isoform P15304-2)

SMILES	IC50 [1] [µM]	Increase in the absorption at 481 nm ([2]; enzyme 10 arb. units) [arb. units]	Increase in the absorption at 481 nm ([2]; enzyme 20 arb. units) [arb. units]	Increase in the absorption at 481 nm ([2]; enzyme 50 arb. units) [arb. units]	Increase in the absorption at 481 nm ([2]; enzyme 75 arb. units) [arb. units]	Increase in the absorption at 481 nm ([2]; enzyme 100 arb. units) [arb. units]	Increase in the absorption at 481 nm ([2]; enzyme 150 arb. units) [arb. units]	Increase in the absorption at 481 nm ([2]; enzyme 200 arb. units) [arb. units]	Increase in the absorption at 481 nm ([2]; enzyme 250 arb. units) [arb. units]	Increase in the absorption at 481 nm ([2]; enzyme 300 arb. units) [arb. units]	Increase in the absorption at 481 nm ([2]; enzyme 400 arb. units) [arb. units]	Activity relative to HSL ([2]; pancreatic lipase, conditions optimized for HSL) [%]	Activity as substrate of lipases [3]
O=C(CCCCCCCCCCCNc1ccc([N+](=O)[O-])c2nonc12)OCC(O)CO (racemic) [Compound 3]	> 100	–	–	–	–	–	–	–	–	–	–	–	–
O=C(CCCCCCCCCCCNc1ccc([N+](=O)[O-])c2nonc12)OCC(O)CO (stereo not shown) [Compound (3)]	–	9 ± 2	14 ± 4	39 ± 7	64 ± 10	92 ± 14	140 ± 18	188 ± 21	234 ± 30	265 ± 34	286 ± 32	1	“best” substrate
